{"source": "paper PMC4254589", "about": "(Bioorganic & medicinal chemistry, 2014)", "note": "Bridge positions count the residues as written; N and C are the ends. Square brackets hold non-standard residues; d marks the D form. Peptide text beside a SMILES is read from it. d2Nal = N[C@H](Cc1ccc2ccccc2c1)C(=O)O; Nle = CCCC[C@H](N)C(=O)O"}
{"target": "T1, hMC4R (Homo sapiens, UniProt P32245)", "T1 sequence (P32245 whole entry)": "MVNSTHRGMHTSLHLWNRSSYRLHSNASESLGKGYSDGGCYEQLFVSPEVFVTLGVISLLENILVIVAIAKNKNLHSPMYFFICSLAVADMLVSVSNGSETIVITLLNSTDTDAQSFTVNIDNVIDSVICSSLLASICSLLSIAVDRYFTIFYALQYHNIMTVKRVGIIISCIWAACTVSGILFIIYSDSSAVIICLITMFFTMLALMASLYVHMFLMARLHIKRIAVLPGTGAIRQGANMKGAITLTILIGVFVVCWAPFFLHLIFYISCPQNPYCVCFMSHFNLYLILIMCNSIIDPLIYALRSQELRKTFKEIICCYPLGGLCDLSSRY", "test": "Lanthanide-based competitive binding assay", "conditions": "not given", "units": {"EC50": "nM"}}
{"compound": "CCCC[C@H](NC(=O)[C@H](CO)NC(C)=O)C(=O)N[C@@H](CCC(=O)O)C(=O)N[C@@H](Cc1c[nH]cn1)C(=O)N[C@H](Cc1ccccc1)C(=O)N[C@@H](CCCNC(=N)N)C(=O)N[C@@H](Cc1c[nH]c2ccccc12)C(N)=O", "note": "[MSH(7), Ac-Ser-Nle-Glu-His-D-Phe-Arg-Trp-NH2] (Ac-S[Nle]EH[dF]RW-NH2)", "EC50": "~50"}
{"target": "T1, hMC4R", "test": "Lanthanide-based competitive binding assay", "conditions": "SEM", "units": {"EC50": "nM"}}
{"compound": "CCCC[C@H](NC(=O)COCC(=O)NCCCOCCOCCOCCCNC(=O)CNC(=O)[C@@H]1CCCN1C(=O)CNC(=O)[C@@H]1CCCN1C(=O)CNC(=O)[C@@H]1CCCN1C(=O)COCC(=O)NCCCOCCOCCOCCCNC(=O)[C@H](Cc1c[nH]c2ccccc12)NC(=O)[C@H](CCCNC(=N)N)NC(=O)[C@@H](Cc1ccccc1)NC(=O)[C@H](Cc1c[nH]cn1)NC(=O)[C@H](CCC(=O)O)NC(=O)[C@H](CCCC)NC(=O)[C@H](CO)NC(C)=O)C(=O)N[C@H]1CC(=O)NCCCC[C@@H](C(N)=O)NC(=O)[C@H](Cc2c[nH]c3ccccc23)NC(=O)[C@H](CCCNC(=N)N)NC(=O)[C@@H](Cc2ccc3ccccc3c2)NC(=O)[C@H](Cc2c[nH]cn2)NC1=O", "note": "[compound 16, Ac-MSH(7)-PEGO-(Pro-Gly)3-PEGO-SHU9119-NH2]", "EC50": 1.38}
{"compound": "CCCC[C@H](NC(=O)COCC(=O)NCCCOCCOCCOCCCNC(=O)[C@H](Cc1c[nH]c2ccccc12)NC(=O)[C@H](CCCNC(=N)N)NC(=O)[C@@H](Cc1ccccc1)NC(=O)[C@H](Cc1c[nH]cn1)NC(=O)[C@H](CCC(=O)O)NC(=O)[C@H](CCCC)NC(=O)[C@H](CO)NC(C)=O)C(=O)N[C@H]1CC(=O)NCCCC[C@@H](C(N)=O)NC(=O)[C@H](Cc2c[nH]c3ccccc23)NC(=O)[C@H](CCCNC(=N)N)NC(=O)[C@@H](Cc2ccc3ccccc3c2)NC(=O)[C@H](Cc2c[nH]cn2)NC1=O", "note": "[compound 17, Ac-MSH(7)-PEGO-SHU9119-NH2]", "EC50": 1.86}
{"compound": "CCCC[C@H](NC(=O)CNC(=O)[C@@H]1CCCN1C(=O)CNC(=O)[C@@H]1CCCN1C(=O)CNC(=O)[C@@H]1CCCN1C(=O)CNC(=O)[C@@H]1CCCN1C(=O)CNC(=O)[C@@H]1CCCN1C(=O)CNC(=O)[C@@H]1CCCN1C(=O)CNC(=O)[C@@H]1CCCN1C(=O)CNC(=O)[C@@H]1CCCN1C(=O)CNC(=O)[C@@H]1CCCN1C(=O)CNC(=O)[C@@H]1CCCN1C(=O)CNC(=O)[C@@H]1CCCN1C(=O)CNC(=O)[C@@H]1CCCN1C(=O)[C@H](Cc1c[nH]c2ccccc12)NC(=O)[C@H](CCCNC(=N)N)NC(=O)[C@@H](Cc1ccccc1)NC(=O)[C@H](Cc1c[nH]cn1)NC(=O)[C@H](CCC(=O)O)NC(=O)[C@H](CCCC)NC(=O)[C@H](CO)NC(C)=O)C(=O)N[C@H]1CC(=O)NCCCC[C@@H](C(N)=O)NC(=O)[C@H](Cc2c[nH]c3ccccc23)NC(=O)[C@H](CCCNC(=N)N)NC(=O)[C@@H](Cc2ccc3ccccc3c2)NC(=O)[C@H](Cc2c[nH]cn2)NC1=O", "note": "[compound 15, Ac-MSH(7)-(Pro-Gly)12-SHU9119-NH2] (Ac-S[Nle]EH[dF]RWPGPGPGPGPGPGPGPGPGPGPGPG[Nle]DH[d2Nal]RWK-NH2; lactam 33-38)", "EC50": 1.58}
{"compound": "CCCC[C@H](NC(=O)COCC(=O)NCCCOCCOCCOCCCNC(=O)COCC(=O)NCCCOCCOCCOCCCNC(=O)[C@H](Cc1c[nH]c2ccccc12)NC(=O)[C@H](CCCNC(=N)N)NC(=O)[C@@H](Cc1ccccc1)NC(=O)[C@H](Cc1c[nH]cn1)NC(=O)[C@H](CCC(=O)O)NC(=O)[C@H](CCCC)NC(=O)[C@H](CO)NC(C)=O)C(=O)N[C@H]1CC(=O)NCCCC[C@@H](C(N)=O)NC(=O)[C@H](Cc2c[nH]c3ccccc23)NC(=O)[C@H](CCCNC(=N)N)NC(=O)[C@@H](Cc2ccc3ccccc3c2)NC(=O)[C@H](Cc2c[nH]cn2)NC1=O", "note": "[compound 18, Ac-MSH(7)-PEGO-PEGO-SHU9119-NH2]", "EC50": 1.7}
{"target": "T1, hMC4R", "test": "not given", "conditions": "binding to hMC4R, MSH(7) ligands; cited from earlier work", "units": {"EC50": "nM"}}
{"compound": "Ac-(Pro-Gly)6- MSH(7)-NH2 (Ac-PGPGPGPGPGPGS[Nle]EH[dF]RW-NH2; SMILES CCCC[C@H](NC(=O)[C@H](CO)NC(=O)CNC(=O)[C@@H]1CCCN1C(=O)CNC(=O)[C@@H]1CCCN1C(=O)CNC(=O)[C@@H]1CCCN1C(=O)CNC(=O)[C@@H]1CCCN1C(=O)CNC(=O)[C@@H]1CCCN1C(=O)CNC(=O)[C@@H]1CCCN1C(C)=O)C(=O)N[C@@H](CCC(=O)O)C(=O)N[C@@H](Cc1c[nH]cn1)C(=O)N[C@H](Cc1ccccc1)C(=O)N[C@@H](CCCNC(=N)N)C(=O)N[C@@H](Cc1c[nH]c2ccccc12)C(N)=O) [compound 19]", "EC50": "82 ± 12"}
{"compound": "Ac-(Pro-Gly)9- MSH(7)-NH2 (Ac-PGPGPGPGPGPGPGPGPGS[Nle]EH[dF]RW-NH2; SMILES CCCC[C@H](NC(=O)[C@H](CO)NC(=O)CNC(=O)[C@@H]1CCCN1C(=O)CNC(=O)[C@@H]1CCCN1C(=O)CNC(=O)[C@@H]1CCCN1C(=O)CNC(=O)[C@@H]1CCCN1C(=O)CNC(=O)[C@@H]1CCCN1C(=O)CNC(=O)[C@@H]1CCCN1C(=O)CNC(=O)[C@@H]1CCCN1C(=O)CNC(=O)[C@@H]1CCCN1C(=O)CNC(=O)[C@@H]1CCCN1C(C)=O)C(=O)N[C@@H](CCC(=O)O)C(=O)N[C@@H](Cc1c[nH]cn1)C(=O)N[C@H](Cc1ccccc1)C(=O)N[C@@H](CCCNC(=N)N)C(=O)N[C@@H](Cc1c[nH]c2ccccc12)C(N)=O) [compound 20]", "EC50": "236 ± 24"}
{"compound": "Ac-MSH(7)-(Pro-Gly)6- MSH(7)-NH2 (Ac-S[Nle]EH[dF]RWPGPGPGPGPGPGS[Nle]EH[dF]RW-NH2; SMILES CCCC[C@H](NC(=O)[C@H](CO)NC(C)=O)C(=O)N[C@@H](CCC(=O)O)C(=O)N[C@@H](Cc1c[nH]cn1)C(=O)N[C@H](Cc1ccccc1)C(=O)N[C@@H](CCCNC(=N)N)C(=O)N[C@@H](Cc1c[nH]c2ccccc12)C(=O)N1CCC[C@H]1C(=O)NCC(=O)N1CCC[C@H]1C(=O)NCC(=O)N1CCC[C@H]1C(=O)NCC(=O)N1CCC[C@H]1C(=O)NCC(=O)N1CCC[C@H]1C(=O)NCC(=O)N1CCC[C@H]1C(=O)NCC(=O)N[C@@H](CO)C(=O)N[C@@H](CCCC)C(=O)N[C@@H](CCC(=O)O)C(=O)N[C@@H](Cc1c[nH]cn1)C(=O)N[C@H](Cc1ccccc1)C(=O)N[C@@H](CCCNC(=N)N)C(=O)N[C@@H](Cc1c[nH]c2ccccc12)C(N)=O) [compound 22]", "EC50": "11 ± 2"}
{"compound": "Ac-(Pro-Gly)12- MSH(7)-NH2 (Ac-PGPGPGPGPGPGPGPGPGPGPGPGS[Nle]EH[dF]RW-NH2; SMILES CCCC[C@H](NC(=O)[C@H](CO)NC(=O)CNC(=O)[C@@H]1CCCN1C(=O)CNC(=O)[C@@H]1CCCN1C(=O)CNC(=O)[C@@H]1CCCN1C(=O)CNC(=O)[C@@H]1CCCN1C(=O)CNC(=O)[C@@H]1CCCN1C(=O)CNC(=O)[C@@H]1CCCN1C(=O)CNC(=O)[C@@H]1CCCN1C(=O)CNC(=O)[C@@H]1CCCN1C(=O)CNC(=O)[C@@H]1CCCN1C(=O)CNC(=O)[C@@H]1CCCN1C(=O)CNC(=O)[C@@H]1CCCN1C(=O)CNC(=O)[C@@H]1CCCN1C(C)=O)C(=O)N[C@@H](CCC(=O)O)C(=O)N[C@@H](Cc1c[nH]cn1)C(=O)N[C@H](Cc1ccccc1)C(=O)N[C@@H](CCCNC(=N)N)C(=O)N[C@@H](Cc1c[nH]c2ccccc12)C(N)=O) [compound 21]", "EC50": "188 ± 25"}
